Experimental data reported in patent US20230271964A1, “5-AMINO-8-(4-PYRIDYL)-[1,2,4]TRIAZOLO[4,3-C]PYRIMIDIN-3-ONE COMPOUNDS FOR USE AGAINST CANCER” (ASTRAZENECA AB, priority 2020, published 2023).

How the values were obtained:
[1] = molecular target: human adenosine A1 receptor (Homo sapiens (Human), UniProt P30542); assay: Adenosine receptor inhibition binding assay, [3H]DPCPX, A1 receptor membranes; details: 1 nM [3H]DPCPX, 25° C., 1 h, Ki from IC50 by Cheng-Prusoff; for Ki: read-out: A1 pKi (converted)
human adenosine A1 receptor, sequence (P30542 whole entry): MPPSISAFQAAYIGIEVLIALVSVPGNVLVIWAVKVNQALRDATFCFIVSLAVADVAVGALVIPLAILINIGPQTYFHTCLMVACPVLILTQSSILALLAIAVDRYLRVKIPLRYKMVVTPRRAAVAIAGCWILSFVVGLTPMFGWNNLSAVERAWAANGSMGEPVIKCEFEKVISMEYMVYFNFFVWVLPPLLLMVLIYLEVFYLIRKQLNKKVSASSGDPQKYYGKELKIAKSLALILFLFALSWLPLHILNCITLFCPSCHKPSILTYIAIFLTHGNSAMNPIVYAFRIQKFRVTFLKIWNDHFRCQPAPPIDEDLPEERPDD
Protocol: (§1) Inhibition binding assays were performed using 0.2 µg of membranes prepared from HEK293 cells infected with BacMam human adenosine A2A receptor or 1.4 µg of membranes prepared from HEK293 cells infected with BacMam human adenosine A1 receptor. Membranes were incubated in 50 mM Tris-HCl (HEK293-hA2A; pH 7.4) or 50 mM Tris-HCl, 100 mM NaCl, 10 mM MgCl2 (CHO-hA1; pH 7.4) in the presence of varying concentrations of test compound and 1 nM [^3H]ZM241385 (HEK293-hA2A) or [^3H]DPCPX (CHO-hA1) at 25° C. for 1 h. The assay was then terminated by rapid filtration onto GF/B grade Unifilter plates using a TomTec cell harvester, followed by 5 × 0.5 ml washes with ddH2O. Nonspecific binding was defined in the presence of 1 µM CGS 15943 (HEK293-hA2A) or 1 µM DPCPX (CHO-hA1). Bound radioactivity was determined by liquid scintillation counting and inhibition curves were analysed using a four-parameter logistic equation. IC50 values were converted to Ki values with the Cheng-Prusoff equation using a KD value derived from saturation binding studies.

[2] = molecular target: human adenosine A2A receptor (Homo sapiens (Human), UniProt P29274); assay: Adenosine receptor inhibition binding assay, [3H]ZM241385, HEK293 A2A receptor membranes; details: 1 nM [3H]ZM241385, HEK293-hA2A membranes, 25° C., 1 h, Ki from IC50 by Cheng-Prusoff; for Ki: read-out: A2A pKi (converted)
human adenosine A2A receptor, sequence (P29274 whole entry): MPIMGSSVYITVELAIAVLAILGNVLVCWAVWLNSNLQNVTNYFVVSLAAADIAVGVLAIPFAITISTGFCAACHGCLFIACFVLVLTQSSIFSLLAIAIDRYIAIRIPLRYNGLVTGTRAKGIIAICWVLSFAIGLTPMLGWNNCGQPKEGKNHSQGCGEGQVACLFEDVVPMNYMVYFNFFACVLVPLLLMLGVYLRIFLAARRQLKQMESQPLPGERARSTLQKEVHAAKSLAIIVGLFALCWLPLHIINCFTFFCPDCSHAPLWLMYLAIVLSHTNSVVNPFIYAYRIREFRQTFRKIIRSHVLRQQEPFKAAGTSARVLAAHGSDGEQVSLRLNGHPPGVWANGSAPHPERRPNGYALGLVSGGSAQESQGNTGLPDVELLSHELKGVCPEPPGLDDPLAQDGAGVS
Protocol: as §1

Row | A1 pKi [1] | A2A pKi [2] | Ki [1] | Ki [2] | SMILES
1 | 7.1 | 8.6 | – | – | Cc1cc(-c2c(-c3ccccc3)nc(N)n3c(=O)n(Cc4ccn[nH]4)nc23)cc(C)n1 [Example 1-25, 5-amino-8-(2,6-dimethyl-4-pyridyl)-7-phenyl-2-(1H-pyrazol-5-ylmethyl)-[1,2,4]triazolo[4,3-c]pyrimidin-3-one]
2 | <5.4 | 6.4 | – | – | Cc1cc(-c2c(-c3ccccc3)nc(N)n3c(=O)n(Cc4nn[nH]n4)nc23)cc(C)n1 [Example 1-26, 5-amino-8-(2,6-dimethyl-4-pyridyl)-7-phenyl-2-(2H-tetrazol-5-ylmethyl)-[1,2,4]triazolo[4,3-c]pyrimidin-3-one]
3 | 6.6 | 8.1 | – | – | Cc1cc(-c2c(-c3ccccc3)nc(N)n3c(=O)n(Cc4nnco4)nc23)cc(C)n1 [Example 1-27, 5-amino-8-(2,6-dimethyl-4-pyridyl)-2-(1,3,4-oxadiazol-2-ylmethyl)-7-phenyl-[1,2,4]triazolo[4,3-c]pyrimidin-3-one]
4 | 6.5 | 7.7 | – | – | Cc1cc(-c2c(-c3ccccc3)nc(N)n3c(=O)n(Cc4nncn4C)nc23)cc(C)n1 [Example 1-28, 5-amino-8-(2,6-dimethyl-4-pyridyl)-2-[(4-methyl-1,2,4-triazol-3-yl)methyl]-7-phenyl-[1,2,4]triazolo[4,3-c]pyrimidin-3-one]
5 | 7.0 | 8.6 | – | – | Cc1cc(-c2c(-c3ccccc3)nc(N)n3c(=O)n(Cc4nn[nH]c4C)nc23)cc(C)n1 [Example 1-29, 5-amino-8-(2,6-dimethylpyridin-4-yl)-2-((5-methyl-1H-1,2,3-triazol-4-yl)methyl)-7-phenyl-[1,2,4]triazolo[4,3-c]pyrimidin-3(2H)-one]
6 | 6.6 | 8.9 | – | – | Cc1cc(-c2c(-c3ccccc3)nc(N)n3c(=O)n(Cc4cnn(C)n4)nc23)cc(C)n1 [Example 1-30, 5-amino-8-(2,6-dimethyl-4-pyridyl)-2-[(2-methyltriazol-4-yl)methyl]-7-phenyl-[1,2,4]triazolo[4,3-c]pyrimidin-3-one]
7 | 7.0 | 9.5 | – | – | Cc1cc(-c2c(-c3ccc(F)cc3)nc(N)n3c(=O)n(Cc4nc(C)oc4C)nc23)cc(C)n1 [Example 1-32, 5-amino-2-[(2,5-dimethyloxazol-4-yl)methyl]-8-(2,6-dimethyl-4-pyridyl)-7-(4-fluorophenyl)-[1,2,4]triazolo[4,3-c]pyrimidin-3-one]
8 | 7.1 | 8.1 | – | – | COc1cccc(-c2nn(Cc3ccccc3)cc2Cn2nc3c(-c4cc(C)nc(C)c4)c(-c4ccccc4)nc(N)n3c2=O)c1 [Example 1-33, 5-amino-2-[[1-benzyl-3-(3-methoxyphenyl)pyrazol-4-yl]methyl]-8-(2,6-dimethyl-4-pyridyl)-7-phenyl-[1,2,4]triazolo[4,3-c]pyrimidin-3-one]
9 | 7.5 | 9.2 | – | – | Cc1ocnc1Cn1nc2c(-c3cc(C)[n+]([O-])c(C)c3)c(-c3ccccc3)nc(N)n2c1=O [Example 1-34, 5-amino-8-(2,6-dimethyl-1-oxido-pyridin-1-ium-4-yl)-2-[(5-methyloxazol-4-yl)methyl]-7-phenyl-[1,2,4]triazolo[4,3-c]pyrimidin-3-one]
10 | 6.8 | 9.5 | – | – | Cc1cc(-c2c(-c3ccccc3)nc(N)n3c(=O)n(Cc4ncoc4C)nc23)cc(CO)n1 [Example 1-39, 5-amino-8-[2-(hydroxymethyl)-6-methyl-4-pyridyl]-2-[(5-methyloxazol-4-yl)methyl]-7-phenyl-[1,2,4]triazolo[4,3-c]pyrimidin-3-one]
11 | 6.9 | 8.8 | – | – | Cc1cc(-c2c(-c3ccccc3)nc(N)n3c(=O)n(Cc4ncco4)nc23)cc(CO)n1 [Example 1-40, 5-amino-8-[2-(hydroxymethyl)-6-methyl-4-pyridyl]-2-(oxazol-2-ylmethyl)-7-phenyl-[1,2,4]triazolo[4,3-c]pyrimidin-3-one]
12 | 7.2 | 9.1 | – | – | Cc1cc(-c2c(-c3ccccc3)nc(N)n3c(=O)n(Cc4nccn4C)nc23)cc(CO)n1 [Example 1-41, 5-amino-8-[2-(hydroxymethyl)-6-methyl-4-pyridyl]-2-[(1-methylimidazol-2-yl)methyl]-7-phenyl-[1,2,4]triazolo[4,3-c]pyrimidin-3-one]
13 | 6.7 | 8.5 | – | – | Cc1cc(-c2c(-c3ccccc3)nc(N)n3c(=O)n(Cc4cocn4)nc23)cc(CO)n1 [Example 1-42, 5-amino-8-[2-(hydroxymethyl)-6-methyl-4-pyridyl]-2-(oxazol-4-ylmethyl)-7-phenyl-[1,2,4]triazolo[4,3-c]pyrimidin-3-one]
14 | 6.8 | 8.4 | – | – | Cc1cc(-c2c(-c3ccccc3)nc(N)n3c(=O)n(Cc4c(C)ncn4C)nc23)cc(CO)n1 [Example 1-44, 5-amino-2-[(3,5-dimethylimidazol-4-yl)methyl]-8-[2-(hydroxymethyl)-6-methyl-4-pyridyl]-7-phenyl-[1,2,4]triazolo[4,3-c]pyrimidin-3-one]
15 | 7.2 | 9.3 | – | – | Cc1cc(-c2c(-c3ccccc3)nc(N)n3c(=O)n(Cc4ccn(C)n4)nc23)cc(CO)n1 [Example 1-45, 5-amino-8-[2-(hydroxymethyl)-6-methyl-4-pyridyl]-2-[(1-methylpyrazol-3-yl)methyl]-7-phenyl-[1,2,4]triazolo[4,3-c]pyrimidin-3-one]
16 | – | – | 158 nM | 0.316 nM | [2H]c1c([2H])c([2H])c(-c2nc(N)n3c(=O)n(Cc4ncoc4C)nc3c2-c2cc(C)nc(CO)c2)c([2H])c1[2H] [Example 1-47, 5-amino-8-[2-(hydroxymethyl)-6-methyl-4-pyridyl]-2-[(5-methyloxazol-4-yl)methyl]-7-(2,3,4,5,6-pentadeuteriophenyl)-[1,2,4]triazolo[4,3-c]pyrimidin-3-one]
17 | – | – | 158 nM | 1.26 nM | [2H]c1c([2H])c([2H])c(-c2nc(N)n3c(=O)n(Cc4nccn4C)nc3c2-c2cc(C)nc(CO)c2)c([2H])c1[2H] [Example 1-48, 5-amino-8-[2-(hydroxymethyl)-6-methyl-4-pyridyl]-2-[(1-methylimidazol-2-yl)methyl]-7-(2,3,4,5,6-pentadeuteriophenyl)-[1,2,4]triazolo[4,3-c]pyrimidin-3-one]
18 | – | – | 316 nM | 1.58 nM | [2H]c1c([2H])c([2H])c(-c2nc(N)n3c(=O)n(Cc4cocn4)nc3c2-c2cc(C)nc(CO)c2)c([2H])c1[2H] [Example 1-49, 5-amino-8-[2-(hydroxymethyl)-6-methyl-4-pyridyl]-2-(oxazol-4-ylmethyl)-7-(2,3,4,5,6-pentadeuteriophenyl)-[1,2,4]triazolo[4,3-c]pyrimidin-3-one]
19 | 7.2 | 9.7 | – | – | Cc1ocnc1Cn1nc2c(-c3cc(Cl)nc(CO)c3)c(-c3ccccc3)nc(N)n2c1=O [Example 1-54, 5-amino-8-[2-chloro-6-(hydroxymethyl)-4-pyridyl]-2-[(5-methyloxazol-4-yl)methyl]-7-phenyl-[1,2,4]triazolo[4,3-c]pyrimidin-3-one]
20 | – | – | 5.01 nM | 0.158 nM | [2H]c1c([2H])c([2H])c(-c2nc(N)n3c(=O)n(Cc4nccn4C)nc3c2-c2cc(Cl)nc(CO)c2)c([2H])c1[2H] [Example 1-56, 5-amino-8-[2-chloro-6-(hydroxymethyl)-4-pyridyl]-2-[(1-methylimidazol-2-yl)methyl]-7-(2,3,4,5,6-pentadeuteriophenyl)-[1,2,4]triazolo[4,3-c]pyrimidin-3-one]
21 | – | – | 126 nM | 0.1 nM | [2H]c1c([2H])c([2H])c(-c2nc(N)n3c(=O)n(Cc4ncoc4C)nc3c2-c2cc(Cl)nc(CO)c2)c([2H])c1[2H] [Example 1-57, 5-amino-8-[2-chloro-6-(hydroxymethyl)-4-pyridyl]-2-[(5-methyloxazol-4-yl)methyl]-7-(2,3,4,5,6-pentadeuteriophenyl)-[1,2,4]triazolo[4,3-c]pyrimidin-3-one]
22 | 6.8 | 9.9 | – | – | Cc1ocnc1Cn1nc2c(-c3cc(Cl)nc(CO)c3)c(-c3ccc(F)cc3)nc(N)n2c1=O [Example 1-59, 5-amino-8-[2-chloro-6-(hydroxymethyl)-4-pyridyl]-7-(4-fluorophenyl)-2-[(5-methyloxazol-4-yl)methyl]-[1,2,4]triazolo[4,3-c]pyrimidin-3-one]
23 | – | – | 126 nM | 0.251 nM | [2H]c1c([2H])c([2H])c(-c2nc(N)n3c(=O)n(Cc4nccn4C)nc3c2-c2cc(CO)nc(OC)c2)c([2H])c1[2H] [Example 1-62, 5-amino-8-[2-(hydroxymethyl)-6-methoxy-4-pyridyl]-2-[(1-methylimidazol-2-yl)methyl]-7-(2,3,4,5,6-pentadeuteriophenyl)-[1,2,4]triazolo[4,3-c]pyrimidin-3-one]
